# Measurements published in PMC3479146, “Flanking Residues Are Central to DO11.10 T Cell Hybridoma Stimulation by Ovalbumin 323–339” (PLoS ONE, 2012).
# Where “and” joins values, the source holds several entries; their conditions need not be identical. Equal entries are not always repeated. Where two headings read alike, the source gives them in different places. Marks after values point to notes of the source that are not given here. Where no end group is shown, it is not given here.
# Legend:
# I-A^d = details: cited from earlier work
# Source text: Table 1 Alternate registers within OVA 323–339. | column: Dissociation rate constants ^a / (k d, s^−1) || Peptide-MHC complex stability correlates broadly with immunogenicity, [21], as stable epitopes are more prevalent on the cell surface, and subsequently more likely to be recognized by responding T cells. Stability is commonly approximated as the dissociation rate of fluorescently labeled peptide from soluble MHC, although this approach can be complicated by highly overlapping registers. […] Supporting the thermodynamic stability of register one, a complex between the 323–339 peptide and I-A^d was cr ... || The HEL epitope consisting of residues 11 through 25 (HEL11-25) has been characterized as a weak MHC binder when presented by I-A^d, with a short half-life of approximately six hours that presumably results from a poorly accommodated arginine side chain in the P1 pocket. We compared the activities of wild type HEL11-25 to a variant in which the native P-4 to P-2 sequence was replaced with OVA-specific residues (QAV13-25) and a control in which these three residues were adjusted to GGS (GGS13-25). Since these changes lengthen the HEL11-25 peptide by a single amino acid, a control in whic ...
# [1] = system: HEL11–25 responsive T cell hybridoma; details: synthetic HEL peptide; A20 + HEL11-25 hybridoma cells, 24 h; IL-2 ELISA; 3-parameter curve fits of aggregate data from at least two experiments
# Procedure: We compared the activities of wild type HEL11-25 to a variant in which the native P-4 to P-2 sequence was replaced with OVA-specific residues (QAV13-25) and a control in which these three residues were adjusted to GGS (GGS13-25). Since these changes lengthen the HEL11-25 peptide by a single amino acid, a control in which the HEL11-25 peptide was appended with an N-terminal glycine in position P-3 (G11-25) was also analyzed.
# Each well of a 96-well plate was seeded with 15,000 A20 cells, 15,000 T cell hydridoma cells and peptide, malE chimera protein or control peptide/protein per well in DMEM media without L-glutamine, except where noted. After a 24-hour incubation at 37°C, 5% CO2, supernatant was transferred to a new plate and stored at −80°C prior to IL-2 quantification assays. All peptide/protein doses were performed in triplicate wells and all experiments replicated at least twice.
# For malE chimeras and control protein experiments, the relevant protein was thawed, concentrated using 30K molecular weight cut-off centrifugal filter units (Millipore UFC903024) and filter-sterilized. Proteins were then quantified via absorbance at 280 nm using a predicted extinction coefficient and molecular weight, diluted to equal concentrations, the concentration confirmed and serially diluted in 96-well plates. […] Proteins were pre-incubated for four hours with antigen presenting cells (A20 or 3A5) cells prior to a 24-hour incubation with T cell hybridomas. The IL-2 concentration in the supernatant was quantified using a matched pair ELISA quantified with an IL-2 standard as described (BD #555148). All experiments were performed at least twice, and all wells were measured in triplicate. Data was analyzed with Graphpad Prism 5 (La Jolla, CA).
# DO11.10 T cell hybridoma [2] = experiment: DO11.10 hybridoma IL-2 secretion with A20 antigen presenting cells and exogenous OVA peptide variants; type: cell-based, murine; details: synthetic peptide; 15,000 A20 + 15,000 DO11.10 cells per well, 24 h, 37°C, DMEM without L-glutamine; IL-2 by matched pair ELISA; 3-parameter curve fits of aggregate data from at least two experiments
# Procedure: Two previous reports described anchor substitutions to stabilize register four. […] To assess the relative success of these attempts, we synthesized both variants, along with an N-terminally truncated version of the Robertson peptide (328–339 EIVS; Table 2) to remove the effects of flanking residues which we hypothesized would promote register masking. To assess peptide activity, DO11.10 hybridomas were incubated for 24 hours with I-A^d+ A20 lymphoma cells in the presence of peptide, and supernatant was subsequently assessed for the presence IL-2 by a matched pair ELISA as a measure of T cell activation. […]
# (§1) Each well of a 96-well plate was seeded with 15,000 A20 cells, 15,000 T cell hydridoma cells and peptide, malE chimera protein or control peptide/protein per well in DMEM media without L-glutamine, except where noted. After a 24-hour incubation at 37°C, 5% CO2, supernatant was transferred to a new plate and stored at −80°C prior to IL-2 quantification assays. […]
# For malE chimeras and control protein experiments, the relevant protein was thawed, concentrated using 30K molecular weight cut-off centrifugal filter units (Millipore UFC903024) and filter-sterilized. Proteins were then quantified via absorbance at 280 nm using a predicted extinction coefficient and molecular weight, diluted to equal concentrations, the concentration confirmed and serially diluted in 96-well plates. […]
# DO11.10 T cell hybridoma [3] = experiment: DO11.10 hybridoma IL-2 secretion with A20 cells and malE chimeras containing OVA epitope variants; type: cell-based, murine; details: malE chimera protein pre-incubated 4 h with A20 cells, then 24 h with DO11.10, IL-2 ELISA, 3-parameter curve fits of aggregate data from at least two experiments
# Source text: Peptide sequences were introduced into the exposed loop in place of residues 133–140 as first described by Martineau et al., with a glycine-serine extension (GSGSG) appended to the N-terminus of inserted epitopes to increase solubility (Figure 3A, Table 4). The activity of the N-terminally truncated peptides in MBP (325–337, 327–337, 328–337) indicates a maintained preference for wild type flanking residues as was previously observed with synthetic peptides (Figure 3A, Table 4). […] The increased activity of variants retaining the wild type P-3 and P-4 residues of register four during intracellular processing again supports their direct role in mediating the peptide and MHC interaction. […]
# as §1
# For malE chimeras and control protein experiments, the relevant protein was thawed, concentrated using 30K molecular weight cut-off centrifugal filter units (Millipore UFC903024) and filter-sterilized. […] The IL-2 concentration in the supernatant was quantified using a matched pair ELISA quantified with an IL-2 standard as described (BD #555148). […]
# [4] = apparent first order dissociation constant of presumed isolated register from purified I-A^d, single exponential fits to monophasic dissociation data
substance,measurement,setting,value
325–336: literature OVA 325–336 peptide used for register 3 dissociation,"Dissociation rate constants (k d, s^−1)",I-A^d; [4],2.6e-06 s⁻¹
GGSKRHGLDNYRGYSL [GGS13-25],Max response (ng/ml IL-2),[1],0.5 ^* ng/ml IL-2
"327–339 V327K: literature OVA 327–339 peptide with lysine at position 327, used for register 4 dissociation","Dissociation rate constants (k d, s^−1)","I-A^d; apparent first order dissociation constant from purified I-A^d, back-calculated from reported half-life of dissociation",0.0006 s⁻¹
same,half-life of peptide dissociation from I-A^d,"I-A^d; register four core truncated at P-2, P-2 valine altered to lysine",around twenty
AMKRHGLDNYRGYSL [HEL11-25],half-life when presented by I-A^d,I-A^d,approximately six
same,Max response (ng/ml IL-2),[1],0.7 ng/ml IL-2
ISQAVHAAHAEINEAGR [323–339],EC50,DO11.10 T cell hybridoma [2],1.6 µM
QAVKRHGLDNYRGYSL [QAV13-25],Max response (ng/ml IL-2),[1],1.5 ng/ml IL-2 and 1.5 ^* ng/ml IL-2
"323–335 Q325A: literature OVA 323–335 peptide with alanine at position 325, used for register 1 dissociation","Dissociation rate constants (k d, s^−1)",I-A^d; [4],2.3e-06 s⁻¹
GAMKRHGLDNYRGYSL [Peptide G11-25],Max response (ng/ml IL-2),[1],0.7 ng/ml IL-2
MalE chimera 325–337: maltose binding protein with OVA 325–337 replacing malE residues 133–140,Max response (ng/ml IL-2),DO11.10 T cell hybridoma [3],1.1 ^* ng/ml IL-2
same,EC50,DO11.10 T cell hybridoma [3]; read-out: EC50 (µM peptide),18 µM
